Results published in US20130116326A1, “TREATMENT OF DELAYED CUTANEOUS HYPERSENSITIVITY CONDITIONS WITH S-FARNESYLTHIOSALICYLIC ACID AND ANALOGS THEREOF” (RAMOT AT TEL-AVIV UNIVERSITY LTD., priority 2010, published 2013).
Entries after “also recorded” stand apart in the source; their conditions may differ.

Assays:
Ras = Ras GTP loading in Panc-1 cells; assay type: cell-based; conditions: FIG. 6, also as previously reported (ref. 16)
Description: (§1) Jurkat T cells were obtained from the American Type Culture Collection (ATCC) (Manassas, VA). The cells were maintained in RPMI 1640 supplemented with 10% FCS, 2 mM 1-glutamine, and 1% penicillin/streptomycin (Biological Industries, Kibutz Beit Haemek, Israel). Panc-1 cells (ATCC) were grown in Dulbecco's modified Eagle medium (DMEM) containing 10% FCS, 2 mM 1-glutamine, and 1% penicillin/streptomycin. The cells were incubated at 37° C. in a humidified atmosphere of 95% air and 5% CO2. Transfection of Jurkat cells was performed with DMRIE-C (Invitrogen, Carlsbad, Calif.), and cells were examined 24 to 48 hours later. Jurkat T cells were serum starved at 37° C. for 2 to 6 hours, followed by stimulation with 5 μg/ml of mouse anti-human CD3.
(§2) Detection of activated Ras and Rap1 was performed as described previously (4, 9).
(§3) Since FTS is known to inhibit Ras, experiments were designed to determine whether the mechanism of Rap1 inhibition by FTS analogs is indirect and mediated by Ras inhibition. Applicants compared the inhibitory profile of FTS and its analogs on both Ras GTP loading and Rap1 GTP loading in Panc-1 cells (FIG. 6B). […] J Med Chem 2009; 52:197-205]. […] Thus, the extent of Ras and Rap1 inhibition by FTS and its analogs is not identical.

[1] = system: contact sensitivity reaction to DNFB; test: Contact sensitivity to DNFB, ear swelling in mice; assay type: in vivo, BALB/c female mice
Description: The Institutional Ethics Committee of Tel Aviv University approved the study. BALB/c female mice at 8 to 10 weeks of age were used. Oral administration of FTS-A required doses of 50 and 100 mg/kg (10). The compound 2,4-dinitro-l-fluorobenzene (DNFB) and olive oil were obtained from Sigma-Aldrich (St. Louis, Mo.). Mice were sensitized on the shaved abdomen with 50 μl of 0.5% DNFB in a vehicle of 4:1 acetone:olive oil. Mice were ear challenged with 20 μl t of 0.2% DNFB in a vehicle of 4:1 acetone:olive oil after 5 days. A constant area of the ears was measured immediately before challenge and 24 hours later with an engineer's micrometer (Ozaki Mfg. Co., Itabashi, Tokyo). Ear swelling was expressed as the difference in ear thickness before and after the challenge (11).
Next, the ability of FTS-A to inhibit Rap-1-dependent T cell adhesion in vivo was investigated by using contact sensitivity (15) as a model system. Animals were treated orally with two different concentrations of FTS-A (50 mg/kg and 100 mg/kg). […] When treatment was introduced only during the challenge phase (days 5-6), ear swelling was also attenuated.

Rap1 [2] = test: GST pull-down of GTP.Rap1 (Rap1 GTP loading) in Jurkat T cells; assay type: cell-based, human; conditions: for lowering of the amount of GTP.Rap1: Jurkat T cells treated overnight, then stimulated with anti CD3 antibodies for 10 minutes, FIG. 1C; for amount of GTP.Rap1 compared with untreated cells: quiescent Jurkat T cells, treated overnight, 50 μM, FIG. 1A; for ability to inhibit Rap1 activation, comparison among agents: 50 μM overnight
Description: as §1, §2
Samples were separated by SDS-PAGE using 10% polyacrylamide gels and transferred to nitrocellulose filters. Blots were blocked for 1 hour in TBST (10 mM Tris-HCl (pH 8.0), 150 mM NaCl, and 0.05% Tween 20) containing 3% serum bovine albumin, followed by overnight incubation at 4° C. with the primary antibodies. Blots were washed and incubated for 1 hour at room temperature with HRP-conjugated secondary antibodies. Immunoreactive bands were visualized using the LAS-3000 imaging system (Fujifilm Corp., Tokyo).
The experiments were designed to determine whether FTS and its analogs are able to inhibit GTP loading of Rap1. Quiescent Jurkat T cells were treated overnight with FTS, FTS-A, and FTS-MOM, each at a concentration of 50 μM. Cells were collected and the quantity of GTP.Rap1 was determined by pull-down assay. Compared with untreated cells (control), the amount of GTP.Rap1 decreased in all conditions (FIG. 1A). […] Since Rap1 is activated in T cells as a result of crosslinking the antigen receptor, the effect of FTS, and its analogs, on Rap1 activation in stimulated T cells, was studied. Cells were treated with FTS and its analogs overnight, and subsequently stimulated with anti CD3 antibodies for 10 minutes. […] FTS lowered the amount of GTP.Rap1 by 32%, while FTS-A and FTS-MOM lowered it by 60% and 53%, respectively (FIG. 1C). Thus, FTS and its analogs are able to inhibit Rap1 activation in T cells stimulated through the antigen receptor.

Rap1 [3] = test: Rap1 GTP loading in Panc-1 cells; assay type: cell-based; conditions: for inhibition of Rap1 GTP loading: Panc-1 cells, FIG. 6A; for selectivity between Ras and Rap1: profile of inhibition Ras versus Rap1
Description: as §1, §2, §3

Rap1 [4] = test: Rap1 inhibition by geranylgeranyl analogue (data not shown)
Rap1 [5] = test: Confocal microscopy of Rap1 localization and activation in Jurkat T cells; assay type: cell-based, human
Description: Live cells were plated in 35-mm dishes containing a no. 0 glass coverslip over a 15-mm cutout (MatTek, Ashland, Mass). Cells were maintained at 37° C. using a PDMI-2 microincubator (Harvard Apparatus, Holliston, Mass.). Individual cells were imaged before and after addition of stimuli. Images were acquired with a Zeiss 510 inverted laser scanning confocal microscope (Carl Zeiss Microlmaging, Inc., Thornwood, N.Y.) and processed with Adobe Photoshop CS.
It has been reported that only the pool of Rap1 at the plasma membrane becomes GTP bound on lymphocyte activation (9). The following experiments were designed to study whether Rap1 inhibition by FTS-A is indeed restricted to that compartment. Jurkat T cells, expressing GFP tagged Rap1, were subjected to various agents (FIG. 4A), whereas the localization of Rap1 was recorded by confocal microscopy.
The effects of FTS are rather specific to the active GTP-bound forms of Ras proteins (7). To investigate the possible effect of FTS-A on localization of the active Rap1, the probe for activated Rap1, GFP-RBDRALGDS (13), was utilized. […] In cells that were pretreated by FTS-A, the activation of Rap1 at the plasma membrane was blocked (FIG. 4B) although Rap1 remained associated with the plasma membrane (FIG. 4A). Thus, the pool of Rap1 that is inhibited by FTS-A is found at the plasma membrane.

T cells = test: Viable cell count by tryptan blue exclusion; assay type: cell-based; conditions: various concentrations for 72 hours, higher doses, FIG. 3A
Description: Thus, this analog was used for further experiments. First, […] were treated with various concentrations of FTS-A for 72 hours.

Compound | inhibition of Ras GTP loading (Ras) | activation phase of delayed cutaneous hypersensitivity in vivo ([1]; summary statement) | lowering of the amount of GTP.Rap1 (Rap1 [2]) [%] | amount of GTP.Rap1 compared with untreated cells (Rap1 [2]) | inhibition of Rap1 GTP loading (Rap1 [3]) | selectivity between Ras and Rap1 (Rap1 [3]) | Rap1 inhibition compared with FTS analogs (Rap1 [4]) | development of contact sensitivity reaction to DNFB ([1]; animal models, dose not given) | ear swelling ([1]; oral, 50 mg/kg, FIG. 5A) | ear swelling ([1]; oral, 100 mg/kg, FIG. 5A) | ear swelling ([1]; treatment during the sensitization phase (days 0-2), FIG. 5B) | ear swelling ([1]; treatment only during the challenge phase (days 5-6), FIG. 5B) | ability to inhibit Rap1 activation, comparison among agents (Rap1 [2]; Jurkat T cells) | inhibitory effect on Rap1 when Ras is knocked down (Rap1 [2]; Jurkat T cells, N-Ras and K-Ras knocked down via shRNA, FIG. 6B) | amount of GTP.Rap1, dose-response (Rap1 [2]; higher doses of FTS-A, FIG. 3B) | activation of Rap1 at the plasma membrane (Rap1 [5]; GFP-RBDRALGDS probe, pretreated cells stimulated through the antigen receptor, FIG. 4B) | localization of overexpressed Rap1 (Rap1 [5]; Jurkat T cells expressing GFP tagged Rap1, treatment up to 72 hours, FIG. 4A) | localization of Rap-1 (Rap1 [5]; combined treatment with Bryostatin-1 and FTS-A, FIG. 4A) | number of viable cells (T cells)
CC(C)=CCC/C(C)=C/CC/C(C)=C/CSc1ccccc1C(=O)O [FTS, S-trans,trans-farnesylthiosalicylic acid] | comparable to FTS-A | inhibits | 32 | decreased | relatively modest | relatively high selectivity of FTS towards Ras | – | – | – | – | – | – | – | – | – | – | – | – | –
CC(C)=CCC/C(C)=C/CC/C(C)=C/CC/C(C)=C/CSc1ccccc1C(=O)O [GGTS] | – | – | – | – | – | – | did not prove to be a stronger Rap1 inhibitor | – | – | – | – | – | – | – | – | – | – | – | –
CC(C)=CCCC(C)=CCCC(C)=CCSc1ccccc1C(N)=O [FTS-A, FTS-amide] | – | – | 60 | decreased | much greater inhibitory activity toward Rap1 than FTS | inhibited both Ras and Rap1 | – | strongly inhibited | only the higher concentration of FTS-A was able to inhibit ear swelling | able to inhibit ear swelling | did not prevent ear swelling | attenuated | superior to FTS; also recorded: greatest amount of Rap1 inhibition | unchanged | further diminished | blocked | did not change | did not change | decreased
COCOC(=O)c1ccccc1SCC=C(C)CCC=C(C)CCC=C(C)C [FTS-MOM, methoxymethyl S-farnesylthiosalicylate] | weak Ras inhibitor; also recorded: only a minor inhibitory effect | – | 53 | decreased | by far the stronger Rap1 inhibitor; also recorded: strong Rap1 inhibitor | toward Rap1 | – | – | – | – | – | – | superior to FTS | – | – | – | – | – | –
